Test results taken from ChEMBL document CHEMBL5620360, “Design, synthesis and biological evaluation of 4-(4-aminophenoxy)picolinamide derivatives as potential antitumor agents” (Eur J Med Chem, 2023).
Activity calls are given as the source filed them. The calls are words filed in the database; no cut-off is given here.

Key:
[1] = tested on: A549; experiment: Induction of morphological changes in human A549 cells assessed as reduction in cell number at 1.1 uM measured after 12 hrs by acridine orange staining based fluorescence microscopy; assay type: functional
[2] = tested on: A549; experiment: Induction of cell cycle arrest in human A549 cells assessed as accumulation of cells at G2 phase at […] incubated for 24 hrs by propidium iodide staining based flow cytometry (reference value: 7.36%); assay type: functional; details: dose 2.5 µM
[3] = tested on: A549; experiment: Induction of cell cycle arrest in human A549 cells assessed as accumulation of cells at S phase at 10 uM incubated for 24 hrs by propidium iodide staining based flow cytometry (reference value: 38.18%); assay type: functional
[4] = tested on: A549; experiment: cells; details: Homo sapiens, A549, 72 h
[5] = tested on: A549; experiment: Induction of cell cycle arrest in human A549 cells assessed as accumulation of cells at G2 phase at 5 uM incubated for 24 hrs by propidium iodide staining based flow cytometry (reference value: 7.36%); assay type: functional
[6] = tested on: A549; experiment: Induction of morphological changes in human A549 cells assessed as abnormal cell morphology at 1.1 uM measured after 12 hrs by acridine orange staining based fluorescence microscopy; assay type: functional
[7] = biological target: Vascular endothelial growth factor receptor 2 (Homo sapiens, UniProt P35968); experiment: Inhibition of VEGFR2 (unknown origin)
Vascular endothelial growth factor receptor 2, sequence (P35968 whole entry): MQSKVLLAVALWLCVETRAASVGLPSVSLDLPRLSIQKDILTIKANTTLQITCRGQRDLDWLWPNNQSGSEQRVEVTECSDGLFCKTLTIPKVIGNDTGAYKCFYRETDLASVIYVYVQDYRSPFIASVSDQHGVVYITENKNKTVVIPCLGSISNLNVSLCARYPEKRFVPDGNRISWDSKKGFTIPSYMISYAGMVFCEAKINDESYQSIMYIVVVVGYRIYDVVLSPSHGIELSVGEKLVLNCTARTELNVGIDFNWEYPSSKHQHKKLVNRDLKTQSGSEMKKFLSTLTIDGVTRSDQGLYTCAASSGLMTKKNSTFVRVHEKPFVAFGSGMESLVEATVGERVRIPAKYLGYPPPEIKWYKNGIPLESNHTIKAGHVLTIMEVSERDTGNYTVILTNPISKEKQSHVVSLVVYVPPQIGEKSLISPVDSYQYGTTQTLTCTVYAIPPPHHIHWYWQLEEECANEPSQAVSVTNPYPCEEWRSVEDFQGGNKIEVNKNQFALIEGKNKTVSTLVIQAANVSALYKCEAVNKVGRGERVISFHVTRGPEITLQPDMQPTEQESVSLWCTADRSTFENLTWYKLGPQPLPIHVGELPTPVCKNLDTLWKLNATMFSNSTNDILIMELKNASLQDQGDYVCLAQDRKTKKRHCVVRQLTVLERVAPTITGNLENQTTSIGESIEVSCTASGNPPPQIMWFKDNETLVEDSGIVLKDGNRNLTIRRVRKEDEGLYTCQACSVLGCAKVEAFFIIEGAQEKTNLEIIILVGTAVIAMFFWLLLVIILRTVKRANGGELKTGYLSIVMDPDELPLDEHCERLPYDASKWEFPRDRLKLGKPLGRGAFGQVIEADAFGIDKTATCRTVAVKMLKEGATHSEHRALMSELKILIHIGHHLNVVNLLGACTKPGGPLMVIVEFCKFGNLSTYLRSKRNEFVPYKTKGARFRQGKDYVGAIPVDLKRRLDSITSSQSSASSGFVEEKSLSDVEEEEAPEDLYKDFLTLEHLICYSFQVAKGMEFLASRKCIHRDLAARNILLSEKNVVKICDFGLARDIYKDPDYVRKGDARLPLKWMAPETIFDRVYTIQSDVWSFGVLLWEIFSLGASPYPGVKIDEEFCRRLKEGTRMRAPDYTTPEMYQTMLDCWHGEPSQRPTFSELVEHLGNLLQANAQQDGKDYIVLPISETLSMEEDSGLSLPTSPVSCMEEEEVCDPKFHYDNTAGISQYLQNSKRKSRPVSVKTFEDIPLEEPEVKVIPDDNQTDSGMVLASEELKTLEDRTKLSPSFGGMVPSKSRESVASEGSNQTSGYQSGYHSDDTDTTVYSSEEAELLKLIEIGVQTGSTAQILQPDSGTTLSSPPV

[8] = tested on: A549; experiment: Potency index, ratio of cabozantinib IC50 to test compound IC50 for antiproliferative activity against human A549 cells; assay type: functional
[9] = Oral bioavailability in Sprague-Dawley rat at 10 mg/kg by LC-MS/MS analysis; assay type: ADME, organism-based; details: in vivo
[10] = tested on: A549; experiment: Induction of apoptosis in human A549 cells assessed as early apoptotic cells at 5 uM measured after 24 hrs by AnnexinV-FITC/PI staining based flow cytometry (reference value: 1.26%); assay type: functional
[11] = tested on: A549; experiment: Induction of apoptosis in human A549 cells assessed as early apoptotic cells at 10 uM measured after 24 hrs by AnnexinV-FITC/PI staining based flow cytometry (reference value: 1.26%); assay type: functional
[12] = tested on: MCF7; experiment: cells; details: Homo sapiens, MCF7, 72 h
[13] = tested on: A549; experiment: Induction of cell cycle arrest in human A549 cells assessed as accumulation of cells at G1 phase at 5 uM incubated for 24 hrs by propidium iodide staining based flow cytometry (reference value: 54.46%); assay type: functional
[14] = Half life in Sprague-Dawley rat at 10 mg/kg, po by LC-MS/MS analysis; assay type: ADME, organism-based; details: in vivo
[15] = tested on: A549; experiment: Induction of apoptosis in human A549 cells assessed as viable cells at […] measured after 24 hrs by AnnexinV-FITC/PI staining based flow cytometry (reference value: 93.25%); assay type: functional; details: dose 2.5 µM, read-out: Activity
[16] = biological target: Dual specificity mitogen-activated protein kinase kinase 1 (Homo sapiens, UniProt Q02750); experiment: Inhibition of MEK1 (unknown origin)
Dual specificity mitogen-activated protein kinase kinase 1, sequence (Q02750 whole entry): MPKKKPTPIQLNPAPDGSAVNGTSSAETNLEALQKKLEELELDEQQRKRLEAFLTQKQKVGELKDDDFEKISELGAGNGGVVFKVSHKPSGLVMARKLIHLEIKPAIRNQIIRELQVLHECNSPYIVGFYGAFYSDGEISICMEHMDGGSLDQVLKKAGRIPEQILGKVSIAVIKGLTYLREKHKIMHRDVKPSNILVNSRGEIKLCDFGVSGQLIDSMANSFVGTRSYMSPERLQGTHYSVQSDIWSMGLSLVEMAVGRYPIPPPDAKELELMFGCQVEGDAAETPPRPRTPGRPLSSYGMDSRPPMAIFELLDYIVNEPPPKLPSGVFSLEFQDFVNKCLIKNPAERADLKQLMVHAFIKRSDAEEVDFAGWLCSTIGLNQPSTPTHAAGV

[17] = biological target: Hepatocyte growth factor receptor (Homo sapiens, UniProt P08581); experiment: Inhibition of c-Met (unknown origin)
Hepatocyte growth factor receptor, sequence (P08581 whole entry): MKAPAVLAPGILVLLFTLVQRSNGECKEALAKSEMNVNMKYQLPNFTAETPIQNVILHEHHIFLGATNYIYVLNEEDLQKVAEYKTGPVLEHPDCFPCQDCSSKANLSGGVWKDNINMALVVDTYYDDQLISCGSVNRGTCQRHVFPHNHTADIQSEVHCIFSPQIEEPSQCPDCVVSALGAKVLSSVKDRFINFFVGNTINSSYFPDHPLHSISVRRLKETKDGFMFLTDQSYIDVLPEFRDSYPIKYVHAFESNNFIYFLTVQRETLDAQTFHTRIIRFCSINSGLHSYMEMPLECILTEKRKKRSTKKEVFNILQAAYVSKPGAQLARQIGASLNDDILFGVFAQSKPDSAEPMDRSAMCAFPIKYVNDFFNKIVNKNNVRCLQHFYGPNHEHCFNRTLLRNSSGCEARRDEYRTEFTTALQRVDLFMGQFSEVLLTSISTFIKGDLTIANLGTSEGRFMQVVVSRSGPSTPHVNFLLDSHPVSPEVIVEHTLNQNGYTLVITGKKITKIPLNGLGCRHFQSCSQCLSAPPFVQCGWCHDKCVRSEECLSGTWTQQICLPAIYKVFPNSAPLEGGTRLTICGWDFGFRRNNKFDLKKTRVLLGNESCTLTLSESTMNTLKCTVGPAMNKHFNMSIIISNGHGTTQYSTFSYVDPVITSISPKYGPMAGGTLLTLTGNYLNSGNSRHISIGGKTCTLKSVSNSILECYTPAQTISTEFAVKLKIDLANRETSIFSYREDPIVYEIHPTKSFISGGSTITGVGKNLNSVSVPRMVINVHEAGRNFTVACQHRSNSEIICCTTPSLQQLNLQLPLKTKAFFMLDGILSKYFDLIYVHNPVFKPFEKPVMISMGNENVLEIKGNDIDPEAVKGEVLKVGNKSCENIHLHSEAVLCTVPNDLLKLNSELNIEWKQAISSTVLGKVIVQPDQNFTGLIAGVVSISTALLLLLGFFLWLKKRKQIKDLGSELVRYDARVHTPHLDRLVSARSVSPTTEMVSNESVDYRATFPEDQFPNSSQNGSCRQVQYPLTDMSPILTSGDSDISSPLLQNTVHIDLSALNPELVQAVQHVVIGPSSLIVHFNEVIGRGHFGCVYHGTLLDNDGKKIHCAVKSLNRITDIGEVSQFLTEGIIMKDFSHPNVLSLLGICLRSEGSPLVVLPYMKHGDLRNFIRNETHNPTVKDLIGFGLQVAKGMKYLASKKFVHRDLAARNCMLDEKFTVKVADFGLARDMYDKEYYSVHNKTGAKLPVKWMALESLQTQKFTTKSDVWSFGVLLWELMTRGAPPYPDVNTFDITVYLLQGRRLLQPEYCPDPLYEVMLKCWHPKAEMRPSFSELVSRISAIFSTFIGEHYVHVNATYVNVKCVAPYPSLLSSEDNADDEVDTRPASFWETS

[18] = AUC(0 to infinity) in Sprague-Dawley rat at 10 mg/kg, po by LC-MS/MS analysis; assay type: ADME, organism-based; details: in vivo
[19] = tested on: A549; experiment: Induction of morphological changes in human A549 cells assessed as nucleus division and dispersion at 1.1 uM measured after 12 hrs by acridine orange staining based fluorescence microscopy; assay type: functional, cell-based
[20] = tested on: A549; experiment: Induction of cell cycle arrest in human A549 cells assessed as accumulation of cells at G2 phase at 10 uM incubated for 24 hrs by propidium iodide staining based flow cytometry (reference value: 7.36%); assay type: functional
[21] = tested on: A549; experiment: Induction of cell cycle arrest in human A549 cells assessed as accumulation of cells at G1 phase at […] incubated for 24 hrs by propidium iodide staining based flow cytometry (reference value: 54.46%); assay type: functional; details: dose 2.5 µM
[22] = biological target: Mast/stem cell growth factor receptor Kit (Homo sapiens, UniProt P10721); experiment: Inhibition of c-Kit (unknown origin)
Mast/stem cell growth factor receptor Kit, sequence (P10721 whole entry): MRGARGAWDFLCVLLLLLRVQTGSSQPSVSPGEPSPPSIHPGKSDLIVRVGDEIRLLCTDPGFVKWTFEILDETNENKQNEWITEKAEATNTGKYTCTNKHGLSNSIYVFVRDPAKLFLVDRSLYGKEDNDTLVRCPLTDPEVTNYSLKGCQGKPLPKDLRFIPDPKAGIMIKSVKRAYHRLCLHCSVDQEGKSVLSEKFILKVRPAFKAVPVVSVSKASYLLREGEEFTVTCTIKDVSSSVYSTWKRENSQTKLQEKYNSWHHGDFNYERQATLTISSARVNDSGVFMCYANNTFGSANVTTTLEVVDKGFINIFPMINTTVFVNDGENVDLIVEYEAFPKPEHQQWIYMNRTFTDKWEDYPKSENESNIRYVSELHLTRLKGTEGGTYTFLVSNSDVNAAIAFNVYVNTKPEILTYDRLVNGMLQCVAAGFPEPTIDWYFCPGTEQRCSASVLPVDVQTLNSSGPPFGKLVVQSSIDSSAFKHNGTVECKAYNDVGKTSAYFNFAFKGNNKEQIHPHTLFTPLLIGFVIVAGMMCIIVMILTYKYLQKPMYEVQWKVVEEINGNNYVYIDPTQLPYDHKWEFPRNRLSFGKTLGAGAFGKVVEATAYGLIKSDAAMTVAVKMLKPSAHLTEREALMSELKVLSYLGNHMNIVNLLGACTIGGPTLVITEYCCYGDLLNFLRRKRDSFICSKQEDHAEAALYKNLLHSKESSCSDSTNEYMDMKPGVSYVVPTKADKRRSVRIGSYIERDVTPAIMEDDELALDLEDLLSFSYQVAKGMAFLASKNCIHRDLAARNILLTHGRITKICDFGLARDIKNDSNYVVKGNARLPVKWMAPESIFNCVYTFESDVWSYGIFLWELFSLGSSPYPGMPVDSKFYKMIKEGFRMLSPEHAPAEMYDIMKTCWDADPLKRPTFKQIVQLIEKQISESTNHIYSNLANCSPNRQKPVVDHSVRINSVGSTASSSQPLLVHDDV

[23] = tested on: A549; experiment: Induction of apoptosis in human A549 cells assessed as late apoptotic cells at […] measured after 24 hrs by AnnexinV-FITC/PI staining based flow cytometry (reference value: 1.47%); assay type: functional; details: dose 2.5 µM
[24] = tested on: A549; experiment: Induction of cell cycle arrest in human A549 cells assessed as accumulation of cells at G1 phase at 10 uM incubated for 24 hrs by propidium iodide staining based flow cytometry (reference value: 54.46%); assay type: functional
[25] = tested on: HeLa; experiment: Antiproliferative activity against human HeLa cells assessed as reduction in cell viability incubated for 72 hrs by MTT assay; assay type: functional, cell-based; details: Homo sapiens, HeLa, 72 h; read-out: IC50
[26] = tested on: A549; experiment: Induction of apoptosis in human A549 cells assessed as necrotic cells at 5 uM measured after 24 hrs by AnnexinV-FITC/PI staining based flow cytometry (reference value: 4.01%); assay type: functional
[27] = tested on: A549; experiment: Induction of apoptosis in human A549 cells assessed as late apoptotic cells at 10 uM measured after 24 hrs by AnnexinV-FITC/PI staining based flow cytometry (reference value: 1.47%); assay type: functional
[28] = tested on: A549; experiment: Induction of apoptosis in human A549 cells assessed as early apoptotic cells at […] measured after 24 hrs by AnnexinV-FITC/PI staining based flow cytometry (reference value: 1.26%); assay type: functional; details: dose 2.5 µM
[29] = AUC(0 to t) in Sprague-Dawley rat at 10 mg/kg, po by LC-MS/MS analysis; assay type: ADME, organism-based; details: in vivo
[30] = tested on: A549; experiment: Induction of apoptosis in human A549 cells assessed as necrotic cells at […] measured after 24 hrs by AnnexinV-FITC/PI staining based flow cytometry (reference value: 4.01%); assay type: functional; details: dose 2.5 µM
[31] = Half life in Sprague-Dawley rat at 1 mg/kg, iv by LC-MS/MS analysis; assay type: ADME, organism-based; details: in vivo
[32] = tested on: A549; experiment: Induction of apoptosis in human A549 cells assessed as viable cells at 10 uM measured after 24 hrs by AnnexinV-FITC/PI staining based flow cytometry (reference value: 93.25%); assay type: functional; details: read-out: Activity
[33] = tested on: A549; experiment: Induction of cell cycle arrest in human A549 cells assessed as accumulation of cells at S phase at […] incubated for 24 hrs by propidium iodide staining based flow cytometry (reference value: 38.18%); assay type: functional; details: dose 2.5 µM
[34] = Tmax in Sprague-Dawley rat at 10 mg/kg, po by LC-MS/MS analysis; assay type: ADME, organism-based; details: in vivo

For `O=C(NCCCN1CCOCC1)c1cc(Oc2ccc(NC(=O)c3cn(-c4ccc(F)c(Cl)c4)c4ncccc4c3=O)cc2F)ccn1`, the Activity [1] was “Active”, the Activity [2] was 8.89% and the Activity [3] was 28.68%. The IC50 [4] was 260 nM, the Activity [5] was 11.77% and the Activity [6] was “Active”. The IC50 [7] was over 100000 nM, the “Ratio IC50” value [8] was 2.4 and the bioavailability [9] was 13.2%. For the same compound, the Activity [10] was 3.02%, the Activity [11] was 5.57% and the IC50 [12] was 2350 nM. It also gave an Activity [13] of 57.38%, a half-life [14] of 4.5 h and a viability at […] [15] of 93.1%. The IC50 [16] was over 100000 nM, the IC50 [17] was 46.5 nM and the AUC(0-inf) [18] was 3400 ng·h/mL. For the same compound, the Activity [19] was “Active”, the Activity [20] was 12.65% and the Activity [21] was 55.95%. For the same compound, the IC50 [22] was over 100000 nM, the Activity [23] was 2.02% and the Activity [24] was 58.67%. For the same compound, the IC50 [25] was 820 nM, the Activity [26] was 7.49% and the Activity [27] was 8.25%. It also gave an Activity [28] of 1.57%, an AUC(0-t) [29] of 3320 ng·h/mL and an Activity [30] of 3.34%. It also gave a half-life [31] of 2.5 h, a viability at 10 µM [32] of 74.3% and an Activity [33] of 35.16%. It also gave a Tmax [34] of 2.7 h.
